# Source: patent US10154989B2, “Methods of managing graft versus host disease (GvHD) using indole carboxyaldehydes or derivatives thereof” (Emory University, priority 2015, dated 2018)
# “Also recorded” adds a separate entry of the source.
# Columns and labels:
# Format in all cases: in vivo
# [1] = test system: GvHD in B10.BR mice administered TCDBM+T cells; assay: GvHD model: 11Gy TBI B10.BR mice given TCDBM plus 3×10^6 allo-MHC mismatched C57Bl/6 T cells
# Description: B6,B10.BR allo MHC mismatched transplants, administering 3×10^6 MHC mismatched donor T cells following myeloablative irradiation with 11Gy that injures gut epithelia. […] ICA (150 mg/kg/d) p.o. QD.
# The gut microbiota contribute to GvHD, yet some Lactobacillus species, which produce ICA and related molecules, mitigate GvHD. Thus, depending on the composition of the microbiota, molecules derived from it might protect from GvHD or exacerbate it. ICA might limit GvHD, by regulating barrier integrity. A myeloablative dose of total body irradiation (TBI) (11Gy) was administered to B10.BR mice, an established murine model of GvHD, in which followed by transplantation of T cell depleted bone marrow (TCDBM) plus/or minus 3×10^6 allo-MHC mismatched T cells all from donor C57Bl/6 mice. Mice administered TCDBM+T cells consistently developed GvHD, increased apoptosis and crypt hyperplasia in the colon (e.g. FIG. 4C), bacterial dissemination to mesenteric lymph nodes (FIG. 4B), increased Th17 responses, and 90% lethality by 30 days (FIG. 4A). […] Thus, ICA protects against GvHD.
# C. rodentium = assay: Infectious colitis: ICA given to mice infected with C. rodentium
# Description: Indoles were assessed in models of epithelial barrier integrity and immune regulation in mammals. Pathogenic E. coli (EPEC and EHEC) and the related mouse pathogen C. rodentium encode virulence factors and a Type III secretion system through the LEE pathogenicity island, and cause diarrhea and colitis. In vivo, C. rodentium causes infectious colitis, characterized by neutrophil and T cell infiltration into the lamina propria, transient increases in IL-22, epithelial barrier breakdown, crypt hyperplasia (an indicator of repair), and dissemination of bacteria throughout the body. […] Thus, indole derivatives, produced via commensal E. coli TnaA, mitigate pathogen infection. ICA was administered to mice that were infected with C. rodentium.
# [2] = test system: radiation-induced enteritis in mice; assay: Radiation enteritis: 12Gy TBI without BM transplant
# Description: Mice were subjected to 12Gy TBI without BM transplant, a lethal model in which most animals succumb to radiation-induced enteritis by about 7 days post-irradiation (p.i.), as opposed to hematopoietic failure at about 14 days p.i. […] (FIG. 5C). Thus, ICA reduced the death rate of both colonic and hematopoietic stem cells. […] While reduced intestinal damage and improved repair likely accounts at least in part for initial improvement in GvHD animals, additional effects on immune tolerance were also evident, but only over very long periods of administration (>3 months).
# [3] = test system: GvHD in B10.BR (H2k) mice transplanted with TCD-BM+T cells; assay: GvHD model: lethally irradiated B10.BR mice given TCD-BM plus 2×10^6 B6 T cells, daily ICA gavage
# Description: Lethally irradiated B10.BR (H2k) mice were transplanted with 3×10^6 T cell depleted bone marrow cells (TCD-BM) alone or the combination of TCD-BM plus 2×10^6 purified T cells from B6 (H2b) donor mice. Mice received daily gavage with 100 mg/kg or 150 mg/kg ICA or vehicle through day 38 post-transplant. Survival and clinical manifestations of GvHD were monitored through day 62. Histopathology of the gut, cytokines in serum and colon homogenates, intracellular cytokine staining of donor T-cells and bacterial counts in mesenteric lymph nodes (using blood agar plates) were measured in a separate cohort of experimental mice euthanized on day 20. Additionally, a secondary transplant was conducted to test the allo-proliferative capacity (in vivo CFSE dilution assay) and GvHD activity of T-cells from spleens of mice in the TCD-BM+T cells+150 mg/kg ICA group that survived to day 62, compared to B6 T cells, in combination with fresh B6 TCD-BM, in B10.BR recipients.
# They were fed vehicle, 100 mg/kg/day of ICA, or 150 mg/kg/day of ICA by oral gavage. Only 7% of the recipients of TCD-BM+T cells treated with vehicle only survived to day 46.
# [4] = mice infected with C. rodentium
# [5] = ICA-treated recipients of TCD-BM+T cells
compound,measurement,setting,value
"O=Cc1c[nH]c2ccccc12 [ICA, indole-3-carboxaldehyde]",bacterial dissemination to mesenteric lymph nodes,[1]; ICA p.o. 150 mg/kg QD,abrogated
same,colon damage,[1]; ICA p.o. 150 mg/kg QD,abrogated
same,effect on liver GvHD,[1]; ICA p.o. 150 mg/kg QD,without effect
same,animals in which weight loss and death were prevented,"[1]; ICA p.o. 150 mg/kg QD, animals receiving TCDBM+T cells",90%
same,tolerance of donor C57Bl/6 T cells to B10.BR antigens,[1]; after long-term treatment (50 days),irreversibly and permanently tolerant
same,response of donor T cells to allo-antigens other than B10.BR or C57Bl/6,"[1]; after long-term treatment (50 days), upon secondary transplantation",remain responsive
same,survival of mice with transplanted allogeneic T cells,[1]; untreated animals all succumbed to GvHD,90%
same,survival,"C. rodentium; ICA 150 mg/kg/d p.o., C. rodentium infected MyD88−/− mice, compared to vehicle",enhances survival
same,barrier integrity,C. rodentium; [4],maintained barrier integrity
same,survival,C. rodentium; [4],prolonged survival
same,mean survival time,"[2]; 12Gy TBI without BM transplant, extended from 7 days",12 days p.i.
same,apoptotic cells in the colon,[2]; at 6 hr p.i.,fewer apoptotic cells; also recorded: decrease
same,hematopoietic cells in the marrow,[2]; at 4 days p.i.,increased numbers; also recorded: enhances survival of hematopoietic progenitors
same,"survival from radiation, in words",[2]; no BM transplant,promotes survival
same,survival of recipients of TCD-BM+T cells,"[3]; 100 mg/kg/day ICA oral gavage, at day 52, p=0.009",20%
same,survival of recipients of TCD-BM+T cells,"[3]; 150 mg/kg/day ICA oral gavage, p<0.001",83%
same,levels of inflammatory cytokines,[3]; [5],decreased levels of inflammatory cytokines
same,thymopoiesis,[3]; [5],improved thymopoiesis
same,GvHD activity of recovered T cells in secondary B10.BR recipients,[3]; T cells recovered at day 62 from ICA-treated recipients,lack of GvHD activity
same,proliferation of CFSE-stained T cells in secondary transplant,"[3]; T cells recovered at day 62 from ICA-treated recipients, secondary B10.BR recipients",reduced proliferation
same,"GvHD mortality / survival, in words","[3]; daily doses of ICA, 100 or 150 mg/kg/day",improved survival in a dose-dependent manner; also recorded: reduces GvHD mortality in a dose-dependent manner
same,engraftment by allogeneic donor bone marrow,[3]; fed to transplant recipients for the first few weeks after transplant,allows normal engraftment
same,tolerability / toxicity,[3]; recipients of BM grafts without GvHD-causing T-cells,well tolerated without serious toxicity
same,"GvHD pathology, histological analysis of colonic tissue",[3]; vs vehicle-treated control animals,marked reduction of GvHD pathology
same,bacterial colonization of mesenteric lymph nodes (MLN),"[3]; vs vehicle-treated control animals, p<0.01",decreased bacterial colonization; also recorded: reduce bacterial colonization
